Experimental data taken from the Kinase Knowledgebase extract (Sharma et al. 2016).

How the values were obtained:
MAPK14 [1] = target: MAPK14 (UniProt Q16539); test: MAPK14 inhibition (EGFRP)
MAPK14 (Balb/c mice) = test: LPS Induced TNF-alpha Production (Balb/c Mice); conditions: dose or concentration not given here
MAPK14 [2] = target: MAPK14 (UniProt Q16539); test: MAPK14 Inhibition (PHAS-I)
MAPK14 (human) = MAPK14 (human) (UniProt Q16539); test: Antiproliferation Assay (U937 Cells)
MAPK14 (human), sequence (Q16539 whole entry, looked up): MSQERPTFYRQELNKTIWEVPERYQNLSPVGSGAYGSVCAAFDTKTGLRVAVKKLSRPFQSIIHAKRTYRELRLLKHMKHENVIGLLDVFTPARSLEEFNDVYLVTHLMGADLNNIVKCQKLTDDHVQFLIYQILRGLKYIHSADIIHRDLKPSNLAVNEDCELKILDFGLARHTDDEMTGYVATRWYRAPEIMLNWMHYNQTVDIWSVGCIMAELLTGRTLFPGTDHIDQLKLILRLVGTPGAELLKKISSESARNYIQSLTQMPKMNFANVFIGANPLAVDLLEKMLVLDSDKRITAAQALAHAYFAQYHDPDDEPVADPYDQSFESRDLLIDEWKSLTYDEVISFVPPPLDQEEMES

MAPK14, sequence (Q16539 whole entry, looked up): as above

Compound | IC50 (MAPK14 [1]) [µM] | IC50 (MAPK14 [2]) [µM] | IC50 (MAPK14 (human)) [µM] | inhibition (MAPK14 (Balb/c mice)) [%]
CN1CCC(n2cc(-c3ccc(F)cc3)c(-c3ccncc3)n2)CC1.CN1CCC(n2ncc(-c3ccc(F)cc3)c2-c2ccncc2)CC1 | 0.75 | 5.9 | – | 32
OCCn1cc(-c2ccc(F)cc2)c(-c2ccncc2)n1.OCCn1ncc(-c2ccc(F)cc2)c1-c1ccncc1 | 10 | 0.695 | 40 | –
Cn1nc(-c2ccncc2)c(-c2ccc(Cl)cc2)c1N | – | – | 10 | –
Fc1ccc(-c2cn(CCN3CCOCC3)nc2-c2ccncc2)cc1.Fc1ccc(-c2cnn(CCN3CCOCC3)c2-c2ccncc2)cc1 | > 10 | 0.86 | 22 | –
CN(C)CCn1cc(-c2ccc(F)cc2)c(-c2ccncc2)n1.CN(C)CCn1ncc(-c2ccc(F)cc2)c1-c1ccncc1 | 10 | 0.941 | 5 | –

Now from value to compound, other results behind:

IC50 (MAPK14 [1]) [µM] | IC50 (MAPK14 [2]) [µM] | IC50 (MAPK14 (human)) [µM] | Compound | inhibition (MAPK14 (Balb/c mice)) [%]
– | – | 10 | Cc1n[nH]c(-c2ccncc2)c1-c1ccccc1 | –
– | – | 10 | CNC(=O)Nc1n[nH]c(-c2ccncc2)c1-c1ccc(F)cc1 | –
– | – | 10 | NS(=O)(=O)Nc1n[nH]c(-c2ccc(F)cc2)c1-c1ccncc1 | –
